Results on 4 compounds are retold here after patent US20130072505A1, “6,9-Disubstituted Purine Derivatives and Their Use for Treating Skin” (priority 2006, published 2013).

SMILES strings stand for the structures. Entries after “also recorded” stand apart in the source; their conditions may differ. Where two headings read alike, the source gives them in different places. Marks after values point to notes of the source that are not given here.

In one series the test system is mouse fibroblasts NIH3T3. As to the kind of experiment: in vitro cytotoxic activity, Calcein AM microtiter assay. The series is classed as cell-based. The following applies: read-out: GI50 NIH-3T3. The method, then:
(§1) In vitro cytotoxic activity of several of the 6,9-disubstituted purine derivatives of this invention was determined using a microtiter assay with Calcein AM and a panel of cell lines of different histogenetic and species origin; kinetin was also examined as a control. Because only metabolically active cells cleave Calcein AM (tetraacetoxymethyl ester of calcein), the intracellular concentration of calcein corresponds to the number of vital cells in the culture.
(§2) The following cell lines were used: human osteosarcoma (HOS); breast carcinoma MCF-7; human myeloid leukemia K-562; and mouse fibroblasts NIH3T3. The cells were maintained in Nunc/Corning 80 cm^2 plastic tissue culture flasks and cultured in cell culture medium (DMEM with 5 g/l glucose, 2 mM glutamine, 100 U/ml penicillin, 100 μg/ml streptomycin, 10% fetal calf serum, and sodium bicarbonate).
(§3) The cell suspensions were prepared and diluted according to the particular cell type and the expected target cell density (2.500-30.000 cells per well based on cell growth characteristics) were added by pipette (80 μl) into 96/well microtiter plates. Inoculates were allowed a pre-incubation period of 24 hours at 37° C. and 5% CO2 for stabilization. Four-fold dilutions of the intended test concentration were added at time zero in 20 μl aliquots to the microtiter plate wells. The test compounds were generally evaluated at six 4-fold dilutions. The highest well concentration used in the present study was 166.7 μM. All samples were examined in triplicates. Incubations of cells with the tested compounds was for 72 hours at 37° C., in 5% CO2 atmosphere and 100% humidity. At the end of the incubation period, Calcein AM was added to a final concentration of 1 μg/ml incubated for 1 hour. Fluorescence intensity (FI) was measured with a Labsystem FIA Reader Fluoroscan Ascent (UK). The cell survival (GI50) was calculated using the following equation: GI50=([…])/(mean FIcontrol well−mean FIblank)×100%. The GI50 value, the drug concentration lethal to 50% of the cells, was calculated from the obtained dose response curves.

The subject of a further series is human osteosarcoma (HOS). Described as above. In kind it is cell-based. The settings on record: 72 hours, highest concentration 166.7 μM. The protocol:
as §1, §2, §3

The subject of a further series is breast carcinoma MCF-7. The description is as above. In kind it is cell-based. The settings on record: Homo sapiens, MCF7; 72 hours; highest concentration 166.7 μM. The method, then: as §1, §2, §3
The subject of series [1] is Human forskin fibroblasts (cell line BJ). As to the kind of experiment: in vitro cytotoxic activity, MTT assay. The series is classed as cell-based. The following applies: 72 hours; BJ fibroblasts at middle passage. The method, then:
In vitro cytotoxic activity of several of the 6,9-disubstituted purine derivatives of this invention against human diploid fibroblasts was determined by standard MTT assay optimized for 96-well plates. The assay is based on spectrofotometric measurement of the product of metabolic conversion of MTT by mitochondria of living cells.
Human forskin fibroblasts (cell line BJ) at middle passage were maintained in 75 cm^2 plastic tissue culture flasks and cultured in cell culture medium (DMEM with 5 g/l glucose, 2 mM glutamine, 100 U/ml penicillin, 100 μg/ml streptomycin, 10% fetal calf serum, and sodium bicarbonate).
About 5,000 cells were seeded per well of the 96-well plate. After 24 hours the cell culture medium was replaced with the cell culture medium containing a test compound. The test compounds were evaluated at six 2-fold dilutions. The highest concentration used in the present study was usually 200 μM. In the case of compounds with limited solubility in the culture medium the highest concentration was adjusted. Every test compound was examined in five replicates. Cells with the test compounds were incubated for 72 hours at 37° C. in 5% CO2 atmosphere and 100% humidity. At the end of the incubation period, the culture medium was replaced with the cell culture medium containing MTT (0.5 mg/ml) and cells were incubated for another 3 hours. The formazan formed was solubilized by DMSO and absorbance at 570 nm was measured. Ability of the tested compounds to inhibit MTT reducing activity of the cells was calculated as IC=(Acompound exposed well−mean Ablank)/(mean Acontrol well−meanAblank)×100%. IC10, the drug concentration causing 10% decrease in MTT reducing activity, was calculated from the obtained dose response curves.
For orientation: Tetrazolium assays rely on reduction of a dye to a coloured formazan, in cell work by metabolically active cells.

For series [2], the system named is Rat C6 glioma (ATCC No. CCL107). Put plainly: anti-inflammatory activity: isoproterenol-induced intracellular cAMP synthesis. In kind it is cell-based. The following applies: cAMP after 30 min with (−)-isoproterenol. The method, then: Anti-inflammatory activity of several of the 6,9-disubstituted purine derivatives of this invention was determined; kinetin was also evaluated as a control. Rat C6 glioma (ATCC No. CCL107) was cultivated in monolayer in serum-free chemically defined medium containing Ham's F10/minimal essential medium (1:1 v/v), 2 mM L-glutamine, 1% (v/v) minimal essential medium vitamins (100×), 1% (v/v) minimal essential medium nonessential amino acids (100×), 100 U/ml penicillin, […], and 30 nM sodium selenite. Incubation was performed at 37° C. in a humidified atmosphere. The assays were performed in the logaritmic growth phase at a density of 2.5×10^5 cells/cm^2. Intracellular cAMP synthesis was induced by addition of 5 mM (−)-isoproterenol; various amounts of test compounds were added at the same time as the (−)-isoproterenol. After 30 min incubation at 37° C., the medium was removed and the cellular amount of cAMP was determined using the cAMP-enzyme immunoassay kit from Amersham. The I50 value was determined from a dose-response curve in duplicate.

Series [3] has as its system human myeloid leukemia K-562. Put plainly: in vitro cytotoxic activity, Calcein AM microtiter assay. The series is classed as cell-based. The settings on record: K562, 72 hours, highest concentration 166.7 μM. The protocol:
as §1, §2, §3

In a further series the test system is photodamaged facial skin. As to the kind of experiment: earlier clinical study of topically applied kinetin (0.1%). The series is classed as in vivo, human. The settings on record: kinetin 0.1% topical; for Mean Improvement from Baseline: Coarse Wrinkles / Mean Improvement from Baseline: Fine Wrinkles / Mean Improvement from Baseline: Mottled Hyperpigmentation / Mean Improvement from Baseline: Overall Skin Condition / Mean Improvement from Baseline: Roughness: expert evaluation; for Subjects Reporting Improvement from Baseline: Blotchiness / Subjects Reporting Improvement from Baseline: Color / Subjects Reporting Improvement from Baseline: Fine Wrinkles / Subjects Reporting Improvement from Baseline: Texture: self assessment. The text has this:
This Example compares the clinical data for topically applied 6-furfurylamino-9-(2-tetrahydropyranyl)purine (0.10%) taken from Example 23 with similar clinical data generated for topically applied kinetin (0.1%) from an earlier study. The protocol for the earlier clinical trial for kinetin was similar to the protocol as described in Example 23 for the inventive compound; thirty two female volunteers completed the earlier kinetin study. This comparison is based on the expert evaluations and self evaluations of skin condition for eight and twelve week data for some of the parameters evaluated in both studies.

The test system of series [4] is cultured human fibroblasts. The following applies: cited from earlier work.
The test system of series [5] is Human diploid fibroblasts (HCA cells). Put plainly: inhibition of senescence, β-galactosidase staining. The settings on record: test compounds about 50 μM at each passage; for Senescent Cells (%) HCA25: passage 25; for Senescent Cells (%) HCA80: passage 80. The series is classed as cell-based. The method, then: Inhibition of senescence by several of the 6,9-disubstituted purine derivatives of this invention was determined; kinetin was also evaluated as a control. […] The medium used for the cell cultivation was removed, the cells were washed twice in PBS, and fixed in 2-3 ml of fixing solution comprised of a 2% formaldehyde and 0.2% glutaraldehyde in PBS. The cells were incubated at room temperature for 5 minutes, and then washed twice with PBS. The cells were subsequently incubated at 37° C. (without CO2) for 1 to 16 hours in 2-3 ml of the solution comprising potassium ferricyanide (5 mM), potassium ferrocyanide (5 mM), MgCl2 (2 mM), X-gal (5-bromo-4-chloro-3-indolyl-β-D-galactopyranoside) (1 mg/ml), in citric/phosphate buffer (pH 6.0). The test compounds (about 50 μM) were added to the medium at each passage. […] In this experiment, only senescent cells were stained blue due to the action of β-galactosidase on the substrate.

The mark [6] stands for this setting: NIH3T3, 72 hours, highest concentration 166.7 μM.

The GI50 is the concentration at which growth is held to half of that of the control. Turning to `COc1cc(CNc2ncnc3c2ncn3C2CCCCO2)cc(OC)c1` (stereo not drawn) [6-(3,5-dimethoxybenzylamino)-9-(2-tetrahydropyranyl)purine], the 50% growth inhibitory concentration (GI50) with mouse fibroblasts NIH3T3 (setting [6]), in the series on human osteosarcoma (HOS) and with breast carcinoma MCF-7 was over 167 µM each time. Also, the “IC10 (concentration causing 10% decrease in MTT reducing activity)” value in [1] was over 200 µmol/L. For the same compound, the IC50 in [2] (Rattus norvegicus, C6 glioma, 0.5 h, read-out: Anti-inflammatory Activity I50) came to 11 µM. Moreover, in series [2], the “Anti-inflammatory Activity Effect” value was “Inhibition”.
Regarding `c1coc(CNc2ncnc3nc[nH]c23)c1` [Kinetin, N6-furfuryl-adenine], the GI50 with mouse fibroblasts NIH3T3 (NIH3T3, 72 h) was 155 µM. Besides, the GI50 in the series with human osteosarcoma (HOS) was over 167 µM. In addition, in series [3], the GI50 is 164 µM. Moreover, the GI50 in the series with breast carcinoma MCF-7 is over 167 µM. Besides, in the series on photodamaged facial skin (Eight Week Data), the “Mean Improvement from Baseline: Coarse Wrinkles” value was 4%, the “Mean Improvement from Baseline: Fine Wrinkles” value is given as 2%, the “Mean Improvement from Baseline: Mottled Hyperpigmentation” value is recorded as 25%* and the “Mean Improvement from Baseline: Overall Skin Condition” value turned out to be 3%. Also, in the series with photodamaged facial skin (Eight Week Data), the “Mean Improvement from Baseline: Roughness” value turned out to be 35%, the “Mean Improvement from Baseline: TEWL” value came out at 13%, the “Subjects Reporting Improvement from Baseline: Blotchiness” value stood at 50% and the “Subjects Reporting Improvement from Baseline: Color” value is listed as 53%. Further, in the series on photodamaged facial skin (Eight Week Data), the “Subjects Reporting Improvement from Baseline: Fine Wrinkles” value is given as 57% and the “Subjects Reporting Improvement from Baseline: Texture” value is recorded as 77%. Moreover, in the series on photodamaged facial skin (Twelve Week Data), the “Mean Improvement from Baseline: Coarse Wrinkles” value stood at 4%, the “Mean Improvement from Baseline: Fine Wrinkles” value was 6%*, the “Mean Improvement from Baseline: Mottled Hyperpigmentation” value turned out to be 25%* and the “Mean Improvement from Baseline: Overall Skin Condition” value stood at 4%*. In addition, in the series on photodamaged facial skin (Twelve Week Data), the “Mean Improvement from Baseline: Roughness” value is reported as 52%*, the “Mean Improvement from Baseline: TEWL” value is given as 15%, the “Subjects Reporting Improvement from Baseline: Blotchiness” value was determined as 74% and the “Subjects Reporting Improvement from Baseline: Color” value amounted to 71%. Also, in the series on photodamaged facial skin (Twelve Week Data), the “Subjects Reporting Improvement from Baseline: Fine Wrinkles” value is recorded as 71% and the “Subjects Reporting Improvement from Baseline: Texture” value is 87%. Moreover, in series [2], the “Anti-inflammatory Activity Effect” value was “inactive; also recorded: Not active”. In addition, in series [4], the “morphological and biochemical characteristics associated with serial passaging of cells” value was “delayed the onset and decreased the extent of many morphological and biochemical characteristics associated with serial passaging of cells”. Moreover, in [5], the “Senescent Cells (%) HCA50” value is 5%, the “Senescent Cells (%) HCA25” value is reported as 3% and the “Senescent Cells (%) HCA80” value turned out to be 38%.
One may read the melting point as the temperature of the solid-liquid transition. In the case of `COc1ccc(CNc2ncnc3c2ncn3C2CCCO2)cc1` (stereo not drawn) [6-(4-methoxybenzylamino)-9-(2-tetrahydrofuranyl)purine], the melting point lay in the range of 182 to 183 °C. Further, the GI50 in the series with mouse fibroblasts NIH3T3 (setting [6]) was over 167 µM. Also, the GI50 in the series on human osteosarcoma (HOS) was over 167 µM. In the series with breast carcinoma MCF-7, the GI50 was over 167 µM.
As to `COc1ccc(CNc2ncnc3c2ncn3C2CCCCO2)cc1` (stereo not drawn) [6-(4-methoxybenzylamino)-9-(2-tetrahydropyranyl)purine], the melting point lay within 137 to 138 °C. For the same compound, the GI50 in the series with mouse fibroblasts NIH3T3 (setting [6]) was over 167 µM. Also, in the series with human osteosarcoma (HOS), the GI50 was over 167 µM. For the same compound, in series [3], the GI50 is over 167 µM. In the series with breast carcinoma MCF-7, the GI50 was over 167 µM. Further, the “IC10 (concentration causing 10% decrease in MTT reducing activity)” value in series [1] was over 100 µmol/L. In series [5], the “Senescent Cells (%) HCA50” value came to 3%, the “Senescent Cells (%) HCA25” value is 4% and the “Senescent Cells (%) HCA80” value came to 26%.
